Molecules are shown by their SMILES. Non-standard residues stand in square brackets, D forms with d. Residues, ends and D or L forms follow the SMILES beside them. *: point of attachment. X9 = CC(C)C[C@H](NCCN*)C(=O)N[C@@H](CCCNC(=N)N)C(=O)N[C@@H](Cc1ccccc1)C(N)=O; NαAmidinoTrp = N=C(N)N[C@@H](Cc1c[nH]c2ccccc12)C(=O)*; Butyryl(4-indol-3-yl) = O=C(CCCc1c[nH]c2ccccc12)*; Cyclohexanecarbonyl = O=C(C1CCCCC1)*; Arg(Me) = CNC(=N)NCCC[C@H](N)C(=O)O; 2Pal = N[C@@H](Cc1ccccn1)C(=O)O; 4Pal = N[C@@H](Cc1ccncc1)C(=O)O; Hexanoyl = CCCCCC(=O)*; azaGly = NNC(=O)O

T1 sequence (Q969F8 whole entry L364H): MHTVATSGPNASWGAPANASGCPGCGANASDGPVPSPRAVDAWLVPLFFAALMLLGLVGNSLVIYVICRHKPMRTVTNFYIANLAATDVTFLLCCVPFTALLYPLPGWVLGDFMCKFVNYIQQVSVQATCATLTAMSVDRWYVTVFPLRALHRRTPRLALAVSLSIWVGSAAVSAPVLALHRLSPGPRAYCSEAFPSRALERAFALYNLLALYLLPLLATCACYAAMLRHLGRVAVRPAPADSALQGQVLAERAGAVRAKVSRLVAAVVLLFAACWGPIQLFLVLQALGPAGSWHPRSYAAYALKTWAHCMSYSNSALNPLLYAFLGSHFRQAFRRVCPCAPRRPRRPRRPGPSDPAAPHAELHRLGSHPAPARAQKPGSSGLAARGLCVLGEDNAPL

The assay concerns the target T1, hOT7T175 (Homo sapiens, UniProt Q969F8).
T1 construct: expressed in transfected cells
Briefly: Intracellular Ca ion level-increasing activity using FLIPR (180 seconds; specific activity to Metastin (1-54)). To be noted: hOT7T175/CHO, change in intracellular calcium ion level for 180 seconds, Tables 21-23. Type of assay: cell-based. Here is the method:
In accordance with the method described in JPA 2000-312590, the intracellular Ca ion level-increasing activity was measured using FLIPR. […]
The intracellular Ca ion level-increasing activity of the synthetic peptide in hOT7T175/CHO was determined using FLIPR (Molecular Devices, Inc.).
hOT7T175/CHO was subcultured in DMEM supplemented with 10% dialyzed fetal bovine serum (hereinafter abbreviated as dFBS) and provided for the experiment (hereinafter abbreviated as 10% dFBS/DMEM). The hOT7T175/CHO was suspended in 10% dFBS-DMEM in 15×10^4 cells/ml. The suspension was inoculated on a 96-well plate for FLIPR (Black Plate Clear Bottom, Coster, Inc.) at 200 μl each (3.0×10^4 cells/200 μl), followed by incubation at 37° C. overnight in a 5% CO2 incubator. The cells thus incubated were used (hereinafter simply referred to as the cell plate). Then, 21 ml of HANKS/HBSS (9.8 g of HANKS', 0.35 g of sodium hydrogencarbonate, 20 ml of 1M HEPES; after adjusting the pH to 7.4 with 1N sodium hydroxide, the mixture was subjected to sterilization through a filter), 210 μl of […] Probenecid and 210 μl of fetal bovine serum (FBS) were mixed (HANKS/HBSS-Probenecid-FBS).
Furthermore, 2 vials of Fluo3-AM (50 μg/vial) were dissolved in 21 μL of dimethylsulfoxide and 21 μL of 20% Pluronic acid. The resulting solution was added to and mixed with 10 ml of HANKS/HBSS-Probenecid-FBS described above. After the culture medium was removed, the mixture was dispensed onto the cell plate in 100 μl each/well, followed by incubation at 37° C. for an hour in a 5% CO2 incubator (pigment loading). The peptide was dissolved in dimethylsulfoxide in 1×10^−3 M. The peptide solution was diluted with HANKS'/HBSS containing 2.5 mM Probenecid and 0.2% BSA. The dilution was transferred to a 96-well plate for FLIPR (V-Bottom plate, Coster, Inc.) (hereinafter referred to as a sample plate). After completion of the pigment loading onto the cell plate, the cell plate washed 4 times with wash buffer, which was obtained by adding 2.5 mM Probenecid to HANKS'/HBSS, using a plate washer to leave 100 μL of wash buffer after the washing. The cell plate and the sample plate were set in FLIPR and 0.05 ml of a sample from the sample plate was automatically transferred to the cell plate with the FLIPR device to promote the cell response. A change in intracellular calcium ion level for 180 seconds was measured with passage of time.
For orientation: A change in cytosolic calcium serves as a functional read-out for many receptors and channels.
As for `CNC(=N)NCCC[C@H](NC(=O)[C@H](CC(C)C)NC(=O)NNC(=O)[C@H](Cc1ccccc1)NC(=O)[C@H](CO)NC(=O)[C@H](CC(N)=O)NC(=O)[C@H](Cc1c[nH]c2ccccc12)NC(=O)[C@H](CC(N)=O)NC(=O)[C@@H](C)N)C(=O)N[C@@H](Cc1ccccc1)C(N)=O` [Compound No. 259, D-Ala-Asn-Trp-Asn-Ser-Phe-AzaGly-Leu-Arg(Me)-Phe-NH2] (H-[dA]NWNSF[azaGly]L[Arg(Me)]F-NH2), the “intracellular Ca ion level-increasing activity [specific activity to Metastin (1-54)]” value is recorded as 1.

For the compound `CC(C)C[C@H](NCCNC(=O)[C@H](Cc1ccccc1)NC(=O)[C@H](CO)NC(=O)[C@H](CC(N)=O)NC(=O)[C@H](Cc1c[nH]c2ccccc12)NC(=O)[C@H](CC(N)=O)NC(=O)[C@@H](N)Cc1ccc(O)cc1)C(=O)N[C@@H](CCCNC(=N)N)C(=O)N[C@@H](Cc1ccccc1)C(N)=O` [Compound No. 261, Tyr-Asn-Trp-Asn-Ser-Phe-GlyΨ(CH2NH)Leu-Arg-Phe-NH2] (H-YNWNSF-X9), the “intracellular Ca ion level-increasing activity [specific activity to Metastin (1-54)]” value stood at 1.

With `CNC(=N)NCCC[C@H](NC(=O)[C@H](CC(C)C)NC(=O)NNC(=O)[C@H](Cc1ccccc1)NC(=O)[C@H](CO)NC(=O)[C@H](CC(N)=O)NC(=O)CCCc1c[nH]c2ccccc12)C(=O)N[C@@H](Cc1ccccc1)C(N)=O` [Compound No. 267, 4-(3-Indolyl)butyryl-Asn-Ser-Phe-AzaGly-Leu-Arg(Me)-Phe-NH2] ({Butyryl(4-indol-3-yl)}-NSF[azaGly]L[Arg(Me)]F-NH2), the “intracellular Ca ion level-increasing activity [specific activity to Metastin (1-54)]” value is given as 2.

As for `CNC(=N)NCCC[C@H](NC(=O)[C@H](CC(C)C)NC(=O)NNC(=O)[C@H](Cc1ccccc1)NC(=O)[C@H](Cc1ccccc1)NC(=O)[C@H](CO)NC(=O)[C@H](CC(N)=O)NC(=O)[C@H](Cc1ccccc1)NC(=O)[C@H](CC(N)=O)NC(=O)[C@H](N)Cc1ccc(O)cc1)C(=O)N[C@@H](Cc1ccccc1)C(N)=O` [Compound No. 270, D-Tyr-Asn-Phe-Asn-Ser-Phe-Phe-AzaGly-Leu-Arg(Me)-Phe-NH2] (H-[dY]NFNSFF[azaGly]L[Arg(Me)]F-NH2), the “intracellular Ca ion level-increasing activity [specific activity to Metastin (1-54)]” value turned out to be 1.

For the compound `CNC(=N)NCCC[C@H](NC(=O)[C@H](CC(C)C)NC(=O)NNC(=O)[C@H](Cc1ccccc1)NC(=O)[C@H](CO)NC(=O)[C@H](CC(N)=O)NC(=O)[C@@H](N)Cc1c[nH]c2ccccc12)C(=O)N[C@@H](Cc1ccccc1)C(N)=O` [Compound No. 271, Trp-Asn-Ser-Phe-AzaGly-Leu-Arg(Me)-Phe-NH2] (H-WNSF[azaGly]L[Arg(Me)]F-NH2), the “intracellular Ca ion level-increasing activity [specific activity to Metastin (1-54)]” value was found to be 1.

In the case of `CNC(=N)NCCC[C@H](NC(=O)[C@H](CC(C)C)NC(=O)NNC(=O)[C@H](Cc1ccccc1)NC(=O)[C@H](CO)NC(=O)[C@H](CC(N)=O)NC(=O)[C@H](Cc1c[nH]c2ccccc12)NC(C)=O)C(=O)N[C@@H](Cc1ccccc1)C(N)=O` [Compound No. 272, Acetyl-Trp-Asn-Ser-Phe-AzaGly-Leu-Arg(Me)-Phe-NH2] (Ac-WNSF[azaGly]L[Arg(Me)]F-NH2), the “intracellular Ca ion level-increasing activity [specific activity to Metastin (1-54)]” value was 2.

Regarding `CNC(=N)NCCC[C@H](NC(=O)[C@H](CC(C)C)NC(=O)NNC(=O)[C@H](Cc1ccccc1)NC(=O)[C@H](CO)NC(=O)[C@H](CC(N)=O)NC(=O)[C@H](Cc1c[nH]c2ccccc12)NC(=N)N)C(=O)N[C@@H](Cc1ccccc1)C(N)=O` [Compound No. 273, Amidino-Trp-Asn-Ser-Phe-AzaGly-Leu-Arg(Me)-Phe-NH2] (NαAmidinoTrp-NSF[azaGly]L[Arg(Me)]F-NH2), the “intracellular Ca ion level-increasing activity [specific activity to Metastin (1-54)]” value was 5.

In the case of `CCCCCC(=O)N[C@@H](CC(N)=O)C(=O)N[C@@H](CO)C(=O)N[C@@H](Cc1ccccc1)C(=O)NNC(=O)N[C@@H](CC(C)C)C(=O)N[C@@H](CCCNC(=N)NC)C(=O)N[C@@H](Cc1ccccc1)C(N)=O` [Compound No. 277, n-Hexanoyl-Asn-Ser-Phe-AzaGly-Leu-Arg(Me)-Phe-NH2] (Hexanoyl-NSF[azaGly]L[Arg(Me)]F-NH2), the “intracellular Ca ion level-increasing activity [specific activity to Metastin (1-54)]” value was 2.

For `CNC(=N)NCCC[C@H](NC(=O)[C@H](CC(C)C)NC(=O)NNC(=O)[C@H](Cc1ccccc1)NC(=O)[C@H](CO)NC(=O)[C@H](CC(N)=O)NC(=O)C1CCCCC1)C(=O)N[C@@H](Cc1ccccc1)C(N)=O` [Compound No. 278, Cyclohexanecarbonyl-Asn-Ser-Phe-AzaGly-Leu-Arg(Me)-Phe-NH2] (Cyclohexanecarbonyl-NSF[azaGly]L[Arg(Me)]F-NH2), the “intracellular Ca ion level-increasing activity [specific activity to Metastin (1-54)]” value was 2.

Regarding `CNC(=N)NCCC[C@H](NC(=O)[C@H](CC(C)C)NC(=O)CNC(=O)[C@H](Cc1ccccn1)NC(=O)[C@H](CO)NC(=O)[C@H](CC(N)=O)NC(=O)[C@H](Cc1c[nH]c2ccccc12)NC(=O)[C@H](CC(N)=O)NC(=O)[C@H](N)Cc1ccc(O)cc1)C(=O)N[C@@H](Cc1ccccc1)C(N)=O` [Compound No. 281, D-Tyr-Asn-Trp-Asn-Ser-Pya(2)-Gly-Leu-Arg(Me)-Phe-NH2] (H-[dY]NWNS[2Pal]GL[Arg(Me)]F-NH2), the “intracellular Ca ion level-increasing activity [specific activity to Metastin (1-54)]” value is reported as “½”.

As for `CNC(=N)NCCC[C@H](NC(=O)[C@H](CC(C)C)NC(=O)NNC(=O)[C@H](Cc1ccccc1)NC(=O)[C@H](CO)NC(=O)[C@H](CC(N)=O)NC(=O)[C@@H](NC(=O)[C@@H](CC(N)=O)NC(=O)[C@H](N)Cc1ccc(O)cc1)[C@@H](C)O)C(=O)N[C@@H](Cc1ccccc1)C(N)=O` [Compound No. 284, D-Tyr-D-Asn-Thr-Asn-Ser-Phe-AzaGly-Leu-Arg(Me)-Phe-NH2] (H-[dY][dN]TNSF[azaGly]L[Arg(Me)]F-NH2), the “intracellular Ca ion level-increasing activity [specific activity to Metastin (1-54)]” value was 1.

With `CNC(=N)NCCC[C@H](NC(=O)[C@H](CC(C)C)NC(=O)NNC(=O)[C@H](Cc1ccccc1)NC(=O)[C@H](CO)NC(=O)[C@H](CC(N)=O)NC(=O)[C@H](Cc1ccncc1)NC(=O)[C@H](CC(N)=O)NC(=O)[C@H](N)Cc1ccc(O)cc1)C(=O)N[C@@H](Cc1ccccc1)C(N)=O` [Compound No. 286, D-Tyr-Asn-Pya(4)-Asn-Ser-Phe-AzaGly-Leu-Arg(Me)-Phe-NH2] (H-[dY]N[4Pal]NSF[azaGly]L[Arg(Me)]F-NH2), the “intracellular Ca ion level-increasing activity [specific activity to Metastin (1-54)]” value was found to be 2.

As to `CNC(=N)NCCC[C@H](NC(=O)[C@H](CC(C)C)NC(=O)NNC(=O)[C@H](Cc1ccccc1)NC(=O)[C@H](CO)NC(=O)[C@H](CC(N)=O)NC(=O)[C@H](Cc1c[nH]c2ccccc12)NC(=O)[C@@H](CO)NC(=O)[C@H](N)Cc1ccc(O)cc1)C(=O)N[C@@H](Cc1ccccc1)C(N)=O` [Compound No. 287, D-Tyr-D-Ser-Trp-Asn-Ser-Phe-AzaGly-Leu-Arg(Me)-Phe-NH2] (H-[dY][dS]WNSF[azaGly]L[Arg(Me)]F-NH2), the “intracellular Ca ion level-increasing activity [specific activity to Metastin (1-54)]” value was 2.

In the case of `CNC(=N)NCCC[C@H](NC(=O)[C@H](CC(C)C)NC(=O)NNC(=O)[C@H](Cc1ccccc1)NC(=O)[C@H](CO)NC(=O)[C@H](CC(N)=O)NC(=O)[C@H](Cc1c[nH]c2ccccc12)NC(=O)[C@@H](Cc1c[nH]cn1)NC(=O)[C@H](N)Cc1ccc(O)cc1)C(=O)N[C@@H](Cc1ccccc1)C(N)=O` [Compound No. 288, D-Tyr-D-His-Trp-Asn-Ser-Phe-AzaGly-Leu-Arg(Me)-Phe-NH2] (H-[dY][dH]WNSF[azaGly]L[Arg(Me)]F-NH2), the “intracellular Ca ion level-increasing activity [specific activity to Metastin (1-54)]” value amounted to 1.
